Four compounds from patent US11286273B2, “Rhamnolipid compounds and use thereof” (KOREA INSTITUTE OF OCEAN SCIENCE & TECHNOLOGY, priority 2019, dated 2022) can be followed below.

Common to all, as to assay type: cell-based
The subject of one experiment is HCT-15. The experiment is described as follows: SRB growth inhibition, HCT-15 (colon cancer). Conditions: Homo sapiens, HCT-15, 48 hours. The protocol:
(§1) Human cancer cell lines HCT-15 (colon cancer), NUGC-3 (gastric cancer), NCI-H23 (liver cancer), ACHN (kidney cancer), PC-3 (prostate cancer) and MDA-MB-231 (breast cancer) were purchased from American Type Culture Collection (Manassas, Va.).
(§2) Cancer cell lines were cultured in RPMI 1640 supplemented with 10% fetal bovine serum (FBS) in a 5% CO2 humid atmosphere at 37° C. The evaluation of growth inhibitory ability against human cancer cell lines was performed via the Sulforhodamine B (SRB) method. The cells were dispensed into a 96-well plate at a density of 8,000 cells/well, and the next day, cells were treated with compounds 1 to 3 (0.1% DMSO as vehicle control), and treated with a positive control (adriamycin). After incubation for 48 hours, the culture fluid was fixed with 50% trichloroacetic acid ([…]) and stained with 0.4% sulforhodamine B contained in 1% acetic acid. The unbound dye was washed with 1% acetic acid, and the dye bound to the protein was extracted with 10 mM Tris base (pH 10.5) to determine the optical density. The absorbance at 540 nm was determined using a VersaMax microplate reader (Molecular Devices, LLC, Sunnyvale, Calif., USA). The GI50 values were calculated using GraphPad Prism 4.0 software (GraphPad Software, Inc., San Diego, Calif., USA) and shown in Table 3 below.

The test system of the next experiment is PC-3. The experiment is described as follows: SRB growth inhibition, PC-3 (prostate cancer). The note with it: Homo sapiens, PC-3, 48 hours. Here is the method: as §1, §2
In another experiment the test system is Human cancer cell lines. The experiment is described as follows: SRB growth inhibition, panel of six human cancer cell lines (summary). Conditions: for GI50: Homo sapiens, range over the six cancer cell lines of Table 3. Here is the method:
as §1, §2

For another experiment, the system named is MDA-MB-231. The experiment in a line: SRB growth inhibition, MDA-MB-231 (breast cancer). Conditions: Homo sapiens, MDA-MB-231, 48 hours. Here is the method: as §1, §2
A further experiment relates to ACHN. The experiment is described as follows: SRB growth inhibition, ACHN (kidney cancer). The note with it: Homo sapiens, 48 hours. Here is the method:
as §1, §2

In another experiment the test system is NCI-H23. The experiment in a line: SRB growth inhibition, NCI-H23 (liver cancer). The note with it: Homo sapiens, NCI-H23, 48 hours. The protocol:
as §1, §2

Another experiment relates to NUGC-3. The experiment is described as follows: SRB growth inhibition, NUGC-3 (gastric cancer). The note with it: Homo sapiens, NUGC-3, 48 hours. Here is the method:
as §1, §2

Turning to `CC1OC(O[C@H](CCCCCCCCCCCCC[C@@H](C)O)CC(=O)O)C(O)C(O)C1O` (stereo in doubt) [Compound 1, 17-hydroxy-3-(3,4,5-trihydroxy-6-methyltetrahydro-2H-pyran-2-yloxy)octadecanoic acid], the 50% growth inhibitory concentration (GI50) (in general, the concentration giving 50% growth inhibition) with HCT-15 was 41.5 µM; with PC-3 it was 37.8 µM; with Human cancer cell lines, 13.7 to 41.5 µM; in the experiment with MDA-MB-231 it was 30.6 µM; in the experiment with ACHN, 34.2 µM; in the experiment on NCI-H23, 27.5 µM. The compound further displayed a GI50 with NUGC-3 of 30.6 µM.

As for `CC(=O)CCCCCCCCCCCCC[C@H](CC(=O)O)OC1OC(C)C(O)C(O)C1O` (stereo in doubt) [Compound 2, 17-oxo-3-(3,4,5-trihydroxy-6-methyltetrahydro-2H-pyran-2-yloxy)octadecanoic acid], the GI50 is 16.7 µM in the experiment with HCT-15; 18.2 µM in the experiment with PC-3; 13.7 to 41.5 µM with Human cancer cell lines; 40.4 µM with MDA-MB-231; 14.1 µM with ACHN; 13.7 µM with NCI-H23. Besides, it took 19.3 µM to inhibit growth with NUGC-3 by half (GI50). Also, in the experiment with Human cancer cell lines (summary in words of Table 3), the “activity against cancer cell lines” value was “particularly excellent activity”.

On to `COc1cccc2c1C(=O)c1c(O)c3c(c(O)c1C2=O)C[C@@](O)(C(=O)CO)C[C@@H]3O[C@H]1C[C@H](N)[C@H](O)[C@H](C)O1` [ADR, adriamycin, reference compound], for which the GI50 in the experiment with HCT-15 is 1.4 µM; in the experiment on PC-3 it was 1.4 µM; in the experiment with MDA-MB-231, 1.5 µM; in the experiment with ACHN, 1.3 µM; in the experiment on NCI-H23, 1.4 µM; in the experiment with NUGC-3, 1.5 µM.

Turning to `CC1OC(OC2C(O[C@H](CCCCCCCCCCCCC[C@@H](C)O)CC(=O)O)OC(C)C(O)C2O)C(O)C(O)C1O` (stereo partly shown) [Compound 3, 3-(4,5-dihydroxy-6-methyl-3-(3,4,5-trihydroxy-6-methyltetrahydro-2H-pyran-)2-yloxy)tetrahydro-(2H-pyran-2-yloxy)-17-hydroxyoctadecanoic acid], the GI50 with HCT-15 was 26.9 µM; with PC-3 it was 33.3 µM; in the experiment on Human cancer cell lines it was 13.7 to 41.5 µM; in the experiment on MDA-MB-231, 25.5 µM; in the experiment on ACHN, 29.1 µM; in the experiment on NCI-H23, 36.9 µM. In the experiment on NUGC-3, this compound yielded a GI50 of 32 µM.
